Results on four molecules are retold here after patent publication EP1171102B1, “ANHYDROUS TABLET OF RANITIDINE HYDROCHLORIDE WITH DOUBLE-LAYER COATING AND ITS COMPOSITION” (priority 1999, dated 2000).

Structures can show the parent of a compound that is named as a salt.

Series [1] is described as follows: Hygroscopicity and conversion of the crystalline forms on storage. Format: physicochemical. To be noted: product made by the method of the invention; chemico-physical analysis.
For series [2] the following is noted: cited from earlier work; for hygroscopicity: comparison of Form 1 and Form 2, hydrochloride.
The conditions of series [3]: cited from earlier work.

On to `CNC(=C[N+](=O)[O-])NCCSCc1ccc(CN(C)C)o1.Cl` [anhydrous ranitidine hydrochloride], for which the “conversion into the allomorphous Form 2 during the storage” value in series [1] is given as “not gradually converted during the storage into the allomorphous Form 2”.

For `CNC(=C[N+](=O)[O-])NCCSCc1ccc(CN(C)C)o1` [ranitidine hydrochloride Form 1, ranitidine hydrochloride], in series [2], the hygroscopicity entry is given as “more hygroscopic than Form 2”. In series [2] (room temperature, in the presence of moisture), the “conversion into Form 2” value is on record as “may be converted in small amounts in the presence of moisture into Form 2”.

With `CNC(=C[N+](=O)[O-])NCCSCc1ccc(CN(C)C)o1` [ranitidine hydrochloride Form 2, ranitidine hydrochloride], the hygroscopicity result in series [2] was “less hygroscopic than Form 1”.

On to `CNC(=C[N+](=O)[O-])NCCSCc1ccc(CN(C)C)o1` [ranitidine hydrochloride], for which, in series [3] (both allomorphous forms (Form 1 and Form 2)), the water solubility is reported as 900 mg in 1 ml of water. Moreover, the solubility result in series [3] (in water, at 25° C) is given as “over 900 mg/ml”.
